For one assay, the system named is HepG2 cell xenografts. The assay can be described thus: HCC tumor growth xenograft model. In kind it is in vivo, C.B-17 SCID mice. Particulars: 21 days; for mean tumor weight: negative control 981 mg. On the procedure: A total of 48 C.B-17 SCID mice (male and female, 20–25 g) were obtained from the FIOCRUZ-BA animal facility (Salvador, Bahia, Brazil) in accordance with experimental methods authorized by the local Animal Ethics Committee (#22/2021). All mice were fed a standard pellet diet (food and water available ad libitum) and housed in an artificially lit room (12 h dark/light cycle).
HepG2 cells (10^7 cells/500 μL) were implanted subcutaneously into the left front armpit of mice as previously described. The mice were administered intraperitoneally (200 μL/animal) once a day for 3 weeks. […] The animals were euthanized with an anesthetic overdose (thiopental, 100 mg/kg) 1 day after treatment, and the tumors were removed, weighed, and processed for histological examination.

Another assay concerns PBMC. The assay can be described thus: Alamar Blue cytotoxicity, noncancerous cells. As to conditions: 72 h. Format: cell-based, human. As for the experimental part:
The Alamar Blue assay was used to measure cell viability, as previously described. Adherent cells were seeded in 96-well plates at a density of 7 × 10^3 cells per well, and suspended cells were seeded at 3 × 10^4 cells per well. Drugs were added to each well after overnight incubation for adherent cells or immediately after seeding for suspension cells, and incubation continued for an additional 72 h. The positive control included doxorubicin (Laboratorio IMA S.A.I.C., Buenos Aires, Argentina). Four hours (for cell lines) or 24 h (for primary cultures) before the end of incubation, 20 μL of resazurin (30 μM) (Sigma‒Aldrich Co. St. Louis, MO, USA) was added to each well. The absorbance at 570 and 600 nm was measured using a SpectraMax 190 microplate reader (Molecular Devices, Sunnyvale, CA, USA). […]
PBMC heath peripheral blood mononuclear human primary cell […]
Then, the PBMCs were resuspended in RPMI 1640 or DMEM-F12 supplemented with 20% FBS and 1% antibiotics. The cells were plated at 5 × 10^5 cells/well. Concanavalin A (10 μg/mL, Sigma‒Aldrich) was used as a mitogen to trigger cell division in T lymphocytes and was added at the beginning of the culture. The Research Ethics Committee of the Oswaldo Cruz Foundation
For orientation: The colour change of resazurin is a common sign of viable cells or microbes.

The test system of assay [1] is HepG2 cells. In words: CD133 and CD44 expression by flow cytometry. Format: cell-based, human. As to conditions: 24 h; for percentage of HepG2 CD133-positive cells: 8 μM complex 1 or 6 μM complex 2. On the procedure: To stain the cell surface proteins, the cells were washed with an incubation buffer (0.5% bovine serum albumin in PBS), and then antibodies were added and incubated for 1 h at room temperature. The cells were then washed with PBS, and the fluorescence signal was measured by flow cytometry. CD133 and CD44 were quantified in YO-PRO-1 (Sigma‒Aldrich Co.) negative cells.
(§1) For all flow cytometry analyses, cellular fluorescence was measured using a BD LSRFortessa cytometer, BD FACSDiva software (BD Biosciences) and FlowJo software 10 (FlowJo LLC; Ashland, OR, USA). A minimum of 10,000 events were obtained per sample for intracellular staining, and a minimum of 30,000 events per sample were acquired for cell surface protein staining. Doublets were removed using FSC-A vs FCS-H and SCC-A vs SCC-H. Cellular debris was excluded from the analysis.

A further assay concerns HL-60. The assay can be described thus: Alamar Blue cytotoxicity. Format: cell-based, human. Particulars: for IC50: HL-60, 72 h. As for the experimental part:
The Alamar Blue assay was used to measure cell viability, as previously described. Adherent cells were seeded in 96-well plates at a density of 7 × 10^3 cells per well, and suspended cells were seeded at 3 × 10^4 cells per well. Drugs were added to each well after overnight incubation for adherent cells or immediately after seeding for suspension cells, and incubation continued for an additional 72 h. […] Four hours (for cell lines) or 24 h (for primary cultures) before the end of incubation, 20 μL of resazurin (30 μM) (Sigma‒Aldrich Co. St. Louis, MO, USA) was added to each well. The absorbance at 570 and 600 nm was measured using a SpectraMax 190 microplate reader (Molecular Devices, Sunnyvale, CA, USA).

The subject of assay [2] is HepG2 cells. In words: May-Grunwald-Giemsa staining morphology. As to conditions: 24, 48, 72 h. Format: cell-based, human. On the procedure:
Cells were grown on coverslips and stained with May-Grunwald-Giemsa. Subsequently, we employed light microscopy to examine and analyze morphological changes.

Assay [3] concerns HepG2 cells. In words: Trypan blue exclusion assay. As to conditions: HepG2, 72 h. In kind it is cell-based, human. On the procedure: The number of viable cells (unstained cells) and nonviable cells (trypan blue-stained cells) was counted by the trypan blue exclusion test. Briefly, 90 μL of cell suspension was selected, and 10 μL of trypan blue (0.4%) was added. A hemocytometer was used to fill the aliquot of the homogenized cell suspension, and the cells were counted under a light microscope.

The subject of a further assay is BJ. The assay can be described thus: Alamar Blue cytotoxicity, noncancerous cells. Format: cell-based, human. Particulars: 72 h. As for the experimental part: (§2) The Alamar Blue assay was used to measure cell viability, as previously described. Adherent cells were seeded in 96-well plates at a density of 7 × 10^3 cells per well, and suspended cells were seeded at 3 × 10^4 cells per well. Drugs were added to each well after overnight incubation for adherent cells or immediately after seeding for suspension cells, and incubation continued for an additional 72 h. The positive control included doxorubicin (Laboratorio IMA S.A.I.C., Buenos Aires, Argentina). Four hours (for cell lines) or 24 h (for primary cultures) before the end of incubation, 20 μL of resazurin (30 μM) (Sigma‒Aldrich Co. St. Louis, MO, USA) was added to each well. The absorbance at 570 and 600 nm was measured using a SpectraMax 190 microplate reader (Molecular Devices, Sunnyvale, CA, USA).

The subject of the next assay is MRC-5. In words: Alamar Blue cytotoxicity, noncancerous cells. In kind it is cell-based, human. Particulars: MRC-5, 72 h. On the procedure: as §2
Assay [4] has as its system HepG2 cells. The assay can be described thus: DNA content assay (internucleosomal DNA fragmentation, cell cycle). In kind it is cell-based, human. Particulars: for DNA fragmentation (sub-G0/G1): HepG2, 72 h, control 5.6%. As for the experimental part:
as §1, with “Internucleosomal DNA fragmentation and cell cycle distribution were determined by a DNA content assay. The cells were stained with PI using a solution containing 0.1% Triton X-100, 2 µg/mL PI, 0.1% sodium citrate, and 100 μg/mL RNAse (all from Sigma‒Aldrich) and incubated in the dark for 15 min at room temperature. For all” for “For all”

Data on 3 molecules can be found in PMC11148080, “Ru(II)-based complexes containing 2-thiouracil derivatives suppress liver cancer stem cells by targeting NF-κB and Akt/mTOR signaling” (Cell Death Discovery, 2024).

Several values for one entry are separate records, joined by “and”; a condition that tells them apart may be missing. Equal entries are not always repeated.

As to `F[P-](F)(F)(F)(F)F.O=c1cc[nH]c([S][Ru+])n1.c1ccc(-c2ccccn2)nc1.c1ccc(P(c2ccccc2)c2ccccc2)cc1.c1ccc(P(c2ccccc2)c2ccccc2)cc1` [Complex 1, trans-[Ru(2TU)(PPh3)2(bipy)]PF6], the tumor inhibition with HepG2 cell xenografts (2 mg/kg i.p. once a day) was 35.3%; in the assay on HepG2 cell xenografts (4 mg/kg i.p. once a day) it was 53.6%. For the same molecule, the mean tumor weight is 635 mg in the assay on HepG2 cell xenografts (2 mg/kg i.p. once a day) and 455 mg in the assay on HepG2 cell xenografts (4 mg/kg i.p. once a day). In addition, the IC50 with PBMC was found to be 14.2 µM; with HL-60 it was 5.71 µM; in the assay with BJ, 7 µM; in the assay with MRC-5 it was 17.7 µM. In addition, in the assay on HepG2 cells [1], the “percentage of HepG2 CD133-positive cells” value was “reduced”. For the same molecule, in the assay with HepG2 cells [2], the “cell morphology (May-Grunwald-Giemsa)” value is “cell morphology changes that were associated with apoptosis”. Also, the “reduction of cell viability” value was 46.5% with HepG2 cells [3] (2 µM), 72.2% in the assay with HepG2 cells [3] (4 µM) and 95.8% in the assay on HepG2 cells [3] (8 µM). For the same molecule, the “DNA fragmentation (sub-G0/G1)” value was 12.3% in the assay with HepG2 cells [4] (2 µM), 26.7% in the assay with HepG2 cells [4] (4 µM) and 43.1% with HepG2 cells [4] (8 µM).

Turning to `Cc1cc(=O)nc([S][Ru+])[nH]1.F[P-](F)(F)(F)(F)F.c1ccc(-c2ccccn2)nc1.c1ccc(P(c2ccccc2)c2ccccc2)cc1.c1ccc(P(c2ccccc2)c2ccccc2)cc1` [Complex 2, trans-[Ru(6m2TU)(PPh3)2(bipy)]PF6], the tumor inhibition in the assay on HepG2 cell xenografts (2 mg/kg i.p. once a day) was 63.6%; in the assay on HepG2 cell xenografts (4 mg/kg i.p. once a day) it was 65.4%. The mean tumor weight in the assay on HepG2 cell xenografts (2 mg/kg i.p. once a day) amounted to 358 mg; in the assay on HepG2 cell xenografts (4 mg/kg i.p. once a day), 340 mg. In addition, the concentration for half-maximal inhibition (IC50) is 11.7 µM in the assay with PBMC; 4.11 µM in the assay on HL-60; 7.8 µM and 7.79 µM in the assay on BJ; 15.2 µM with MRC-5; 15.2 µM in the assay on MRC-5 (listed as 2). Moreover, the “percentage of HepG2 CD44high cells” value in the assay on HepG2 cells [1] (6 μM complex 2) is reported as “reduced”. The “percentage of HepG2 CD133-positive cells” value in the assay on HepG2 cells [1] is on record as “reduced”. Besides, in the assay with HepG2 cells [2], the “cell morphology (May-Grunwald-Giemsa)” value is “cell morphology changes that were associated with apoptosis”. In addition, the “reduction of cell viability” value is given as 39.4% with HepG2 cells [3] (1.5 µM), 61.4% with HepG2 cells [3] (3 µM) and 93.5% in the assay on HepG2 cells [3] (6 µM). Also, the “DNA fragmentation (sub-G0/G1)” value in the assay on HepG2 cells [4] (1.5 µM) came out at 18.6%; in the assay with HepG2 cells [4] (3 µM) it was 39.1%; in the assay on HepG2 cells [4] (6 µM), 72.9%.

In the assay with HepG2 cell xenografts (1 mg/kg i.p. once a day), `COc1cccc2c1C(=O)c1c(O)c3c(c(O)c1C2=O)C[C@@](O)(C(=O)CO)C[C@@H]3O[C@H]1C[C@H](N)[C@H](O)[C@H](C)O1` [Doxorubicin] had a tumor inhibition of 32.2%. This molecule also yielded a mean tumor weight in the assay with HepG2 cell xenografts (1 mg/kg i.p. once a day) of 665 mg. The half-inhibitory concentration (IC50) was found to be 1.33 µM with PBMC (Homo sapiens); 0.35 µM in the assay on HL-60 (Homo sapiens); 1.85 µM with BJ (Homo sapiens); 1.7 µM in the assay on MRC-5 (Homo sapiens, MRC5). The results for the Selectivity index in the assay on HL-60 (IC50 BJ/IC50 HL-60) and in the assay on HL-60 (IC50 MRC-5/IC50 HL-60) were 5.29 and 4.86, respectively. In the assay on HepG2 cells [4] (HepG2, DOX 1 μM, positive control), the DNA fragmentation result is given as “also caused DNA fragmentation”.

For orientation: IC50 means the concentration at which inhibition is half-maximal. Low readings indicate greater potency in that assay, high ones weaker potency in that assay.
